Data from patent US10010560B2, “Small molecule HSP70 inhibitors” (THE TRUSTEES OF THE UNIVERSITY OF PENNSYLVANIA, priority 2014, dated 2018).

What was measured:
[1] = test system: mouse melanoma cell line B16; assay: Pulmonary metastatic model, B16 melanoma; type: in vivo; conditions: C57BL/6 mice injected with B16
Experimental: FIGS. 7A-7C illustrate that PET-16 impairs metastasis in a mouse model of melanoma. A well-recognized pulmonary metastatic model was utilized in which immunocompetent, wild-type C57BL/6 mice were injected with the highly metastatic mouse melanoma cell line B16, as indicated. […] FIG. 7A is a summary of the steps entailed in the model. FIG. 7B are photographs of biopsied lungs obtained from the infected mice. FIG. 7C provides a graphical representation of counts of metastatic colonies intermediate gray square represents 0 colonies, lightest gray square represents 1-10 colonies and darkest gray square represents >10 colonies) seen in lungs of vehicle-, PES-Cl- or PET-16-treated mice.
The inhibitory effect of PET-16 on metastasis was tested in vivo, a well-recognized pulmonary metastatic model was utilized in which immunocompetent, wild-type C57BL/6 mice were injected with the highly metastatic mouse melanoma cell line B16 (FIG. 7).

[2] = test system: human melanoma (A875) cells; assay: Viability of A875 melanoma cells versus IMR90 fibroblasts; type: cell-based; conditions: 10 μM, 24 h, A875 vs IMR90
Experimental: (§1) FIGS. 2A-2D illustrate the cytotoxicity of PET-16 to human tumor cells and its inhibition on E. coli growth. FIG. 2A is a line graph with data obtained from MTT assays of human melanoma cell lines treated with the indicated concentrations of PES or PET-16 for 72 h. The corresponding cell survival is normalized to vehicle (DMSO) treatment. Average and standard deviation (s.d.) from three independent experiments are shown. FIG. 2B are bar graphs of human melanoma (A875) cells and nontransformed human (IMR90) fibroblasts that were treated with DMSO, 10 μM PES or 10 μM PET-16 for 24 h. […] FIG. 2C is a line graph illustrating the growth of E. coli DH5α treated with different concentrations of PES or PET-16 for 6 h at 43° C. Error bars represent the s.d. of four independent experiments. FIG. 2D is a bar graph illustrating the growth of E. coli DH5α treated with DMSO, 30 μM PET-16 or 30 μM TPP for 6 h at 43° C. Error bars represent the s.d. of four independent experiments.

LC3 = assay: Western blot for autophagy marker LC3; type: cell-based, human; conditions: A875 melanoma cell line
Description: (§2) FIGS. 4A-4L illustrate that PET-16 impairs proteostasis. […] There is a general absence of obvious nuclei in PET-16 treated tumor cells. […] FIGS. 4D and 4E are gels of whole-cell extracts (WCE) prepared from human melanoma A875 (D) or 451 Lu (E) cells treated with DMSO, PES or PET-16 that were immunoprecipitated using an anti-HSP70 antibody. The excised band of about 70 kDa shown in the Coomassie gel is HSP70, as confirmed by liquid chromatography—tandem mass spectrometry analysis. FIGS. 4F-4I are western blots of cell lines were treated with DMSO, PES or PET-16 for 24 h and immunoblotted for the indicated proteins. FIG. 4J are western blots of indicated melanomas pretreated with DMSO, PES or PET-16, followed by treatment with IL-6. Cell extracts were immunoblotted for the proteins indicated. Inhibition of IL-6 induced STAT3 and STAT1 phosphorylation by PET-16. FIG. 4K is a western blot analysis indicating altered processing of cathepsin L from the larger precursor form to the smaller mature form in the indicated cells following PET-16 treatment for 24 h. FIG. 4L is a western blot of the human melanoma 451 Lu cells treated with DMSO, PES or PET-16 for 24 h. Cells were harvested in 1% NP40-containing lysis buffer, fractionated into detergent-soluble and detergent-insoluble preparations, and assayed by western blot for ubiquitin. […]

ubiquitin = assay: Western blot for ubiquitin in detergent fractions; type: cell-based, human; conditions: 451 Lu cells, 24 h, detergent insoluble fraction
Description: as §2

cathepsin L = assay: Western blot of cathepsin L processing; type: cell-based; conditions: 24 h treatment
Description: as §2

[3] = test system: non-transformed cells (fibroblasts, primary melanocytes); assay: Viability of non-transformed cells; type: cell-based, human; conditions: at concentrations that inhibit tumor cell viability
Experimental: as §1

tumor cells = assay: Electron microscopy analysis of treated tumor cells; type: cell-based
Description: as §2

STAT3 and STAT1 = assay: IL-6 induced STAT3 and STAT1 phosphorylation in melanoma cell lines; type: cell-based; conditions: cells pre-treated with compound
Description: as §2

[4] = test system: melanoma tumor cell lines; assay: Cellular ATP levels (AlamarBlue assay) in tumor cells; type: cell-based, human
Description: FIGS. 5A-5F illustrates that PET-16 leads to loss of mitochondrial protein Cyclophilin D and impairs bioenergetics in tumor cells. FIGS. 5A-5D are western blots of HSP70, which is present at mitochondria of tumor H1299 cells but not in normal tissue, such as liver. The constitutively expressed 70 kDa family members, HSC70 and GRP75, are present in mitochondria of normal cells. Equal amounts of whole cell (WC)-, cytosolic (cyto)-, and mitochondrial (mito)-extracts prepared from cell lines H1299 (A, C) and MIA PaCa-2 (B) or normal (liver) cells (C, D) were examined by western blot analysis for the presence of the proteins indicated. […] Decreases of AlamarBlue® fluorescence, indicative of mitochondrial damage, are noted in PET-16-treated tumor cells (melanoma tumor cell line WM88 (-), melanoma tumor cell line WM3000 (×), melanoma tumor cell line WM852 (*), human melanoma 451 Lu cells (●), and melanoma tumor cell line WM989 (|), but not normal cells (nontransformed human fibroblasts (IMR90-♦) and primary melanocytes (▪)). Values are normalized to the vehicle-treated cells. Error bars represent standard deviation (s.d.) of four independent experiments.

`C(#C[P+](c1ccccc1)(c1ccccc1)c1ccccc1)c1ccccc1.[Br-]` [PET-16, triphenyl(phenylethynyl)phosphonium bromide] was tested, and the lung metastases [1] was “significantly reduced”, the “cytotoxicity tumor versus nontransformed cells” value [2] was “preferentially cytotoxic for tumor cells” and the “autophagy marker processed LC3II” value (LC3) was “increase”. The ubiquitinated polypeptides (ubiquitin) was “accumulation”, the “cathepsin L processing” value (cathepsin L) was “accumulation of the precursor procathepsin L and a markedly reduced abundance of the smaller, mature form” and the “effect on viability of non-transformed cells” value [3] was “little effect”. The “autophagy and proteostasis by EM” value (tumor cells) was “altered autophagy and impaired proteostasis”, the “IL-6 mediated phosphorylation of STAT3 and STAT1” value (STAT3 and STAT1) was “inhibited” and the “AlamarBlue fluorescence (mitochondrial function)” value [4] was “clear decrease”.
